# According to ChEMBL document CHEMBL1949659, “The green tea polyphenol (2)-epigallocatechin-3-gallate (EGCG) is not a β-secretase inhibitor” (Bioorg Med Chem Lett, 2012):
# pIC50: −log10 of the molar value.
# What was measured:
# Beta-secretase 1 [1] = molecular target: T1, Beta-secretase 1 (Homo sapiens, UniProt P56817)
# Beta-secretase 1 [2] = molecular target: T1, Beta-secretase 1; remark: listed apart in the source
# Beta-secretase 1 [3] = molecular target: T1, Beta-secretase 1; remark: listed apart in the source
# Beta-secretase 1 [4] = molecular target: T1, Beta-secretase 1; remark: listed apart in the source
# Beta-secretase 1 [5] = molecular target: T1, Beta-secretase 1; assay: Inhibition of recombinant human BACE1 using Eu-CEVNLDAEFK-Qsy7 as substrate by HTRF assay
# Beta-secretase 1 [6] = molecular target: T1, Beta-secretase 1; remark: listed apart in the source
# Beta-secretase 1 [7] = molecular target: T1, Beta-secretase 1; remark: listed apart in the source
# Beta-secretase 1 [8] = molecular target: T1, Beta-secretase 1; remark: listed apart in the source
# Beta-secretase 1 [9] = molecular target: T1, Beta-secretase 1; remark: listed apart in the source
# Beta-secretase 1 [10] = molecular target: T1, Beta-secretase 1; remark: listed apart in the source
# Beta-secretase 1 [11] = molecular target: T1, Beta-secretase 1; remark: listed apart in the source
# CHO = assay: Cytotoxicity against CHO cells transfected with human BACE1 and human APP with Swedish mutation at 1 nM to 10 uM by MTT assay; assay type: cell-based, Cricetulus griseus; details: chinese hamster, 0.001 µM
# Beta-secretase 1 [12] = molecular target: T1, Beta-secretase 1; remark: listed apart in the source
# Beta-secretase 1 [13] = molecular target: T1, Beta-secretase 1; remark: listed apart in the source
# Mus musculus [14] = assay: Antialzheimer's disease activity in mouse cortex assessed as inhibition of beta-secretase mediated amyloid beta1-42 production at 3 mg/kg; assay type: functional
# Mus musculus [15] = assay: Antialzheimer's disease activity in mouse hippocampus assessed as inhibition of beta-secretase mediated amyloid beta1-42 production at 3 mg/kg; assay type: functional
# Mus musculus [16] = assay: Antialzheimer's disease activity in mouse hippocampus assessed as inhibition of beta-secretase mediated amyloid beta1-42 production at 1.5 mg/kg; assay type: functional
# Mus musculus [17] = assay: Antialzheimer's disease activity in mouse cortex assessed as inhibition of beta-secretase mediated amyloid beta1-42 production at 1.5 mg/kg; assay type: functional
# T1 sequence (P56817 whole entry): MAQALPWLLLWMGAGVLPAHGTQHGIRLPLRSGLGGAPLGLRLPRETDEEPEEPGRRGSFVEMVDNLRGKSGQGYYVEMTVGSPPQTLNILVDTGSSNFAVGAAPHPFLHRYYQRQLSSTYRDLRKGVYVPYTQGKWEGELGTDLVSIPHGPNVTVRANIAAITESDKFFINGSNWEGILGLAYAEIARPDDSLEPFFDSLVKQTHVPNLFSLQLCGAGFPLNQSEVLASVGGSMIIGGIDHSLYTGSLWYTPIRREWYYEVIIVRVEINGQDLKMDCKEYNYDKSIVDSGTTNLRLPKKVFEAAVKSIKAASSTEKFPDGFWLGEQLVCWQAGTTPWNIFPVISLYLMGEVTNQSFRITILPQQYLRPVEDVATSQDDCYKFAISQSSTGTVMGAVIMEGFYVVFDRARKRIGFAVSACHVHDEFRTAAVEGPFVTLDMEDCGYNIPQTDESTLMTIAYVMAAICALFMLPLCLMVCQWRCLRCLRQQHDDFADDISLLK
SMILES,RFU (Beta-secretase 1 [1]),RFU (Beta-secretase 1 [2]),RFU (Beta-secretase 1 [3]),RFU (Beta-secretase 1 [4]),pIC50 (Beta-secretase 1 [5]),RFU (Beta-secretase 1 [6]),RFU (Beta-secretase 1 [7]),RFU (Beta-secretase 1 [8]),RFU (Beta-secretase 1 [9]),RFU (Beta-secretase 1 [10]),RFU (Beta-secretase 1 [11]),Activity (CHO),RFU (Beta-secretase 1 [12]),RFU (Beta-secretase 1 [13]),inhibition in vivo at 3 mg/kg (Mus musculus [14]) [%],inhibition in vivo at 3 mg/kg (Mus musculus [15]) [%],inhibition in vivo at 1.5 mg/kg (Mus musculus [16]) [%],inhibition in vivo at 1.5 mg/kg (Mus musculus [17]) [%]
CSc1ccc2c(O)c(C(=O)Nc3ccc(N(CCO)CCO)cc3)cnc2c1,99.8,94.8,10.5,73,5.55,14.2,21.7,99.8,99.8,26.8,36.2,Non-toxic,79,69.4,–,–,–,–
O=C(Nc1ccc(N(CCO)CCO)cc1)c1cnc2cc(Cl)cc(Cl)c2c1O,87.4,80.3,4.36,72,5.64,13.7,24.9,90.1,87.4,26.2,39.1,Non-toxic,77.2,65.1,–,–,–,–
O=C(O[C@@H]1Cc2c(O)cc(O)cc2O[C@@H]1c1cc(O)c(O)c(O)c1)c1cc(O)c(O)c(O)c1 [EPIGALOCATECHIN GALLATE],–,–,–,–,–,–,–,–,–,–,–,Non-toxic,–,–,51.2,39.8,25.5,18.6
C[C@@H](NC(=O)c1cc(C(=O)N[C@@H](Cc2ccccc2)[C@H](O)CNC2CC2)cc(N(C)S(C)(=O)=O)c1)c1ccccc1,–,–,–,–,–,–,–,–,–,–,–,Non-toxic,–,–,–,–,–,–
CSc1cccc2c(O)c(C(=O)Nc3ccc(N(CCO)CCO)cc3)cnc12,98.7,81.5,6.14,67.3,5.42,20.2,22.2,98.3,97.7,26.2,34.1,Non-toxic,73.8,63.4,–,–,–,–
